Laboratory results taken from patent US9670142B2, “1,3-diaminocyclopentane carboxamide derivatives” (Merck Patent GmbH, priority 2013, dated 2017).

Biological target: human fatty acid synthase FASN (Homo sapiens (Human), UniProt P49327)
Assay: Biochemical activity testing of human fatty acid synthase FASN (NADPH fluorescence intensity enzyme assay)
Details: human recombinant full-length fatty acid synthase
Method in brief: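 In-house Sf9-expressed full-length enzyme (3 μL of 40 nM) in 50 mM potassium phosphate pH 7.0 with glutathione, BSA and Tween-20, plus NADPH (2 μL of 200 μM), preincubated ≥15 min with compound (10 concentrations from 30 μM final, 1% DMSO). Acetyl-CoA/malonyl-CoA added; NADPH fluorescence (ex 340/em 460 nm) read before and after 30 min at room temperature, difference used for IC50.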

human fatty acid synthase FASN, sequence (P49327 whole entry): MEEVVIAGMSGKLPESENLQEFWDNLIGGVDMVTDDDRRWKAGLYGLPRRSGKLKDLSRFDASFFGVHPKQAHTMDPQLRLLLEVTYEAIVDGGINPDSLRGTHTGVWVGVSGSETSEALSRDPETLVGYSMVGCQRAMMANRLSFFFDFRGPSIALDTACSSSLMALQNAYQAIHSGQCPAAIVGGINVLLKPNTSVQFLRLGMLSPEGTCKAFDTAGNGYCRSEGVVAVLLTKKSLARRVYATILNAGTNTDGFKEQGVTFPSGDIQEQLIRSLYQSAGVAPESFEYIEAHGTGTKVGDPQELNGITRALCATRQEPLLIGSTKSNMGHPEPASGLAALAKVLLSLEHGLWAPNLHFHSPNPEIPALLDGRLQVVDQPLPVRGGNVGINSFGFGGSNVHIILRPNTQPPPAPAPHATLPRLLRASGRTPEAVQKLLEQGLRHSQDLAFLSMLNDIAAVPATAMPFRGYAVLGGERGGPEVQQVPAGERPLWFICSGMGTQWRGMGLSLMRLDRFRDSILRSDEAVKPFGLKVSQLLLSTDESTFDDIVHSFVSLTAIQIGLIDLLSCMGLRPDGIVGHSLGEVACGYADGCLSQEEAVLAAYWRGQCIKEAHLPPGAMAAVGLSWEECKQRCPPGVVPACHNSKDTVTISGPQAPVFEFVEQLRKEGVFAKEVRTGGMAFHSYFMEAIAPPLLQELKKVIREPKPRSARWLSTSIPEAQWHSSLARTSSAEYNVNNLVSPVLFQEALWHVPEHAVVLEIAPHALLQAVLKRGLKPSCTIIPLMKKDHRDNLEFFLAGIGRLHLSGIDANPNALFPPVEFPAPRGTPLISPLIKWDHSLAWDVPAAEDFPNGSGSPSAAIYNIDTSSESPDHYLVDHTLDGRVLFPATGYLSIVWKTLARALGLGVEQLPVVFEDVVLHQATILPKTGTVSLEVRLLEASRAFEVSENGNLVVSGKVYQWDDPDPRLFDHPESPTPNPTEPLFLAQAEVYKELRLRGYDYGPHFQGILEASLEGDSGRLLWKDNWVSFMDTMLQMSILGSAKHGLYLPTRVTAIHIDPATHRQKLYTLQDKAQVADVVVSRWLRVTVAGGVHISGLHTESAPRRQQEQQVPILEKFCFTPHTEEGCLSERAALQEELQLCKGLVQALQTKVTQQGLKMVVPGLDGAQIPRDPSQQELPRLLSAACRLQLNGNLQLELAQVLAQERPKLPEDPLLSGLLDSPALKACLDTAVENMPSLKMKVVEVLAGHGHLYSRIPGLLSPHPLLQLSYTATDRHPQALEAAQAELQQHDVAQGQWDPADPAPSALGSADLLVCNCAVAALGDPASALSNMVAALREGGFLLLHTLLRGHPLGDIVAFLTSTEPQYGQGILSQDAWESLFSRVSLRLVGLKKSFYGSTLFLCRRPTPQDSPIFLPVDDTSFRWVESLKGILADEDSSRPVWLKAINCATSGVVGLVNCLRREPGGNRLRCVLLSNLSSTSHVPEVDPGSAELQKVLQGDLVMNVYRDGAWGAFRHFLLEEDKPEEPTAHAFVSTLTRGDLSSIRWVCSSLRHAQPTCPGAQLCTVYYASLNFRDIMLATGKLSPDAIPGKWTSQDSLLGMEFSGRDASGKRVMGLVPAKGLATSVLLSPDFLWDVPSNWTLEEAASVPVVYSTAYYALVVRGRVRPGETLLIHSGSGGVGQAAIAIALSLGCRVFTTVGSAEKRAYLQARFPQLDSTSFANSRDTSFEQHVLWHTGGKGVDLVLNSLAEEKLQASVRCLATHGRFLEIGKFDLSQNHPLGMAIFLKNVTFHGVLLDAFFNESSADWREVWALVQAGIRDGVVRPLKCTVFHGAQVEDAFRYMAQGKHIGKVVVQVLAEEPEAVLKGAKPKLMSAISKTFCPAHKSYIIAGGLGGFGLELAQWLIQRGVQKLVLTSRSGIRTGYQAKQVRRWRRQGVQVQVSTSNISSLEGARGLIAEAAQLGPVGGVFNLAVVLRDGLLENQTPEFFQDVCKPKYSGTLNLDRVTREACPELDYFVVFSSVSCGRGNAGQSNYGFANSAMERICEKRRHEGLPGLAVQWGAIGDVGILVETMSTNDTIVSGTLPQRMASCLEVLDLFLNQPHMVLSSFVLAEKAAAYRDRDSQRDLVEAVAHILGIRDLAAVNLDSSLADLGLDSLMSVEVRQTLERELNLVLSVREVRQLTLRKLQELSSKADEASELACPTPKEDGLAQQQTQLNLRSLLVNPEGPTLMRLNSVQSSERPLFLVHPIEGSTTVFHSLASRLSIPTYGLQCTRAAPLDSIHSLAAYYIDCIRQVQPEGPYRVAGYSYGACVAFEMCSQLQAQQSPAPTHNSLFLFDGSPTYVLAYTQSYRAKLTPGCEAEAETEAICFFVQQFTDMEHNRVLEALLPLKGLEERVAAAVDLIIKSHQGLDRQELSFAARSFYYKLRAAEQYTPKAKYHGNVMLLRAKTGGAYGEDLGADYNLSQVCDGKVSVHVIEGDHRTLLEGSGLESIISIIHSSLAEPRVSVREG

Compound | IC50 [nM]
CCC(=O)N[C@H]1CC[C@@H](N(C)C(=O)c2ccc(-c3ccc(F)cc3)cc2)C1 [Compound A53, 4′-fluoro-biphenyl-4-carboxylic acid methyl-((1R,3S)-3-propionylamino-cyclopentyl)-amide] | < 300
CCC(=O)N[C@H]1CC[C@@H](N(C)C(=O)c2ccc(-c3cc(C)c4[nH]ncc4c3)cn2)C1 [Compound A104, 5-(7-methyl-1H-indazol-5-yl)-pyridine-2-carboxylic acid methyl-((1R,3S)-3-propionylamino-cyclopentyl)-amide] | < 300
CN(C(=O)c1ccc(-c2nc3ccccc3o2)cc1)[C@@H]1CC[C@H](NC(=O)c2ccccc2)C1 [Compound A20, 4-benzoxazol-2-yl-N-((1R,3S)-3-benzoylamino-cyclopentyl)-N-methyl-benzamide] | 300 to 3000
CCC(=O)N[C@H]1CC[C@@H](N(C)C(=O)c2ccc(-c3ccc(OC)cc3F)cc2)C1 [Compound A99, 2′-fluoro-4′-methoxy-biphenyl-4-carboxylic acid methyl-((1R,3S)-3-propionylamino-cyclopentyl)-amide] | < 300
CN(C(=O)c1ccc(-c2nc3ccccc3o2)cc1)[C@@H]1CC[C@H](NC(=O)C[C@@H]2CCC(=O)N2)C1 [Compound A45, 4-benzoxazol-2-yl-N-methyl-N-{(1R,3S)-3-[2-((S)-5-oxo-pyrrolidin-2-yl)-acetylamino]-cyclopentyl}-benzamide] | 3000 to 50000
CCC(=O)N[C@H]1CC[C@@H](N(C)C(=O)c2ccc(-c3ccncc3)cc2)C1 [Compound A4, N-methyl-N-((1R,3S)-3-propionylamino-cyclopentyl)-4-pyridin-4-yl-benzamide] | < 300
CCC(=O)N[C@H]1CC[C@@H](N(C)C(=O)c2ccc(-c3cc(F)c4[nH]ccc4c3)nc2)C1 [Compound A134, 6-(7-fluoro-1H-indol-5-yl)-N-methyl-N-((1R,3S)-3-propionylamino-cyclopentyl)-nicotinamide] | 300 to 3000
CC(=O)NCCC(=O)N[C@H]1CC[C@@H](N(C)C(=O)c2ccc(-c3nc4ccccc4o3)cc2)C1 [Compound A38, N-[(1R,3S)-3-(3-acetylamino-propionylamino)-cyclopentyl]-4-benzoxazol-2-yl-N-methyl-benzamide] | 300 to 3000
CCC(=O)N[C@H]1CC[C@@H](N(C)C(=O)c2ccc(-c3ccc(C#N)c(F)c3)cc2)C1 [Compound A71, 4′-cyano-3′-fluoro-biphenyl-4-carboxylic acid methyl-((1R,3S)-3-propionylamino-cyclopentyl)-amide] | < 300
CN(C(=O)c1ccc(-c2nc3ccccc3o2)cc1)[C@@H]1CC[C@H](NC(=O)C2CCCC2)C1 [Compound A21, 4-benzoxazol-2-yl-N-[(1R,3S)-3-(cyclopentanecarbonyl-amino)-cyclopentyl]-N-methyl-benzamide] | < 300
CCC(=O)N[C@H]1CC[C@@H](N(C)C(=O)c2ccc(-c3cc(F)c4c(c3)CCN4)nc2)C1 [Compound A145, 6-(7-fluoro-2,3-dihydro-1H-indol-5-yl)-N-methyl-N-((1R,3S)-3-propionylamino-cyclopentyl)-nicotinamide] | 300 to 3000
CCC(=O)N[C@H]1CC[C@@H](N(C)C(=O)c2ccc(-c3ccc4[nH]c(=O)[nH]c4c3)cc2)C1 [Compound A93, N-methyl-4-(2-oxo-2,3-dihydro-1H-benzimidazol-5-yl)-N-((1R,3S)-3-propionylamino-cyclopentyl)-benzamide] | < 300
CCC(=O)N[C@H]1CC[C@@H](N(C)C(=O)c2ccc(-c3ccc4[nH]ccc4c3)nn2)C1 [Compound A113, 6-(1H-indol-5-yl)-pyridazine-3-carboxylic acid methyl-((1R,3S)-3-propionylamino-cyclopentyl)-amide] | < 300
CCC(=O)N[C@H]1CC[C@@H](N(C)C(=O)c2ccc(-c3ccc4cn[nH]c4c3)cc2)C1 [Compound A46, 4-(1H-indazol-6-yl)-N-methyl-N-((1R,3S)-3-propionylamino-cyclopentyl)-benzamide] | < 300
CC[C@H](C)CC(=O)N[C@H]1CC[C@@H](N(C)C(=O)c2ccc(-c3nc4ccccc4o3)cc2)C1 [Compound A30, 4-benzoxazol-2-yl-N-methyl-N-[(1R,3S)-3-((S)-3-methyl-pentanoylamino)-cyclopentyl]-benzamide] | < 300
CCC(=O)N[C@H]1CC[C@@H](N(C)C(=O)c2ccc(-c3ccc4[nH]ccc4n3)cc2)C1 [Compound A129, N-methyl-N-((1R,3S)-3-propionylamino-cyclopentyl)-4-(1H-pyrrolo[3,2-b]pyridin-5-yl)-benzamide] | < 300
CC(=O)N[C@H](C(=O)N[C@H]1CC[C@@H](N(C)C(=O)c2ccc(-c3nc4ccccc4o3)cc2)C1)C(C)C [Compound A43, N-[(1R,3S)-3-((S)-2-acetylamino-3-methyl-butyrylamino)-cyclopentyl]-4-benzoxazol-2-yl-N-methyl-benzamide] | 300 to 3000

Compound | IC50 [nM]
CCC(=O)N[C@H]1CC[C@@H](N(C)C(=O)c2ccc(-c3nc4ccccc4o3)cn2)C1 [Compound A16, 5-benzoxazol-2-yl-pyridine-2-carboxylic acid methyl-((1R,3S)-3-propionylamino-cyclopentyl)-amide] | < 300
CCC(=O)N[C@H]1CC[C@@H](N(C)C(=O)c2ncc(-c3ccc4[nH]ccc4c3)cn2)C1 [Compound A131, 5-(1H-indol-5-yl)-pyrimidine-2-carboxylic acid methyl-((1R,3S)-3-propionylamino-cyclopentyl)-amide] | < 300
CCC(=O)N[C@H]1CC[C@@H](N(C)C(=O)c2ccc(-c3ccc(C(N)=O)cc3)cc2)C1 [Compound A57, biphenyl-4,4′-dicarboxylic acid 4′-amide 4-[methyl-((1R,3S)-3-propionylamino-cyclopentyl)-amide]] | < 300
CCC(=O)N[C@H]1CC[C@@H](N(C)C(=O)c2ccc(-c3ccc4[nH]ccc4c3)cn2)C1 [Compound A109, 5-(1H-indol-5-yl)-pyridine-2-carboxylic acid methyl-((1R,3S)-3-propionylamino-cyclopentyl)-amide] | < 300
CCC(=O)N[C@H]1CC[C@@H](N(C)C(=O)c2ccc(-c3ccc4c(cnn4C)c3)cc2)C1 [Compound A75, N-methyl-4-(1-methyl-1H-indazol-5-yl)-N-((1R,3S)-3-propionylamino-cyclopentyl)-benzamide] | < 300
CCC(=O)N[C@H]1CC[C@@H](N(C)C(=O)c2ccc(-c3nc4ccccc4n3C)cc2)C1 [Compound A123, N-methyl-4-(1-methyl-1H-benzimidazol-2-yl)-N-((1R,3S)-3-propionylamino-cyclopentyl)-benzamide] | < 300
CCC(=O)N[C@H]1CC[C@@H](N(C)C(=O)c2ccc(-c3ccc(C)cc3)cc2)C1 [Compound A73, 4′-methyl-biphenyl-4-carboxylic acid methyl-((1R,3S)-3-propionylamino-cyclopentyl)-amide] | < 300
CCC(=O)N[C@H]1CC[C@@H](N(C)C(=O)c2ccc(-c3ccc(C(=O)O)cc3)cc2)C1 [Compound A51, 4′-[methyl-((1R,3S)-3-propionylamino-cyclopentyl)-carbamoyl]-biphenyl-4-carboxylic acid] | < 300
CCC(=O)N[C@H]1CC[C@@H](N(C)C(=O)c2ccc(-c3ccc(-c4ccn[nH]4)cc3)cc2)C1 [Compound A81, 4′-(2H-pyrazol-3-yl)-biphenyl-4-carboxylic acid methyl-((1R,3S)-3-propionylamino-cyclopentyl)-amide] | < 300
CCC(=O)N[C@H]1CC[C@@H](N(C)C(=O)c2ccc(-c3ccc4c(c3)c(CN)cn4C)cc2)C1 [Compound A152, 4-(3-aminomethyl-1-methyl-1H-indol-5-yl)-N-methyl-N-((1R,3S)-3-propionylamino-cyclopentyl)-benzamide] | < 300
CN(C(=O)c1ccc(-c2nc3ccccc3o2)cc1)[C@@H]1CC[C@H](NC(=O)[C@@H]2CCCO2)C1 [Compound A41, (S)-tetrahydro-furan-2-carboxylic acid {(1S,3R)-3-[(4-benzoxazol-2-yl-benzoyl)-methyl-amino]-cyclopentyl}-amide] | < 300
CN(C(=O)c1ccc(-c2nc3ccccc3o2)cc1)[C@@H]1CC[C@H](NC(=O)C2(C)CC2)C1 [Compound A3, 4-benzoxazol-2-yl-N-methyl-N-{(1R,3S)-3-[(1-methyl-cyclopropanecarbonyl)-amino]-cyclopentyl}-benzamide] | < 300
CN(C(=O)c1ncc(-c2nc3ccc(Cl)cc3o2)cn1)[C@@H]1CC[C@H](NC(=O)[C@@H]2CCCO2)C1 [Compound A149, 5-(6-chloro-benzoxazol-2-yl)-pyrimidine-2-carboxylic acid methyl-{(1R,3S)-3-[((S)-tetrahydro-furan-2-carbonyl)-amino]-cyclopentyl}-amide] | 300 to 3000
CCC(=O)N[C@H]1CC[C@@H](N(C)C(=O)c2ccc(-c3ccc(OC)cc3C)cc2)C1 [Compound A65, 4′-methoxy-2′-methyl-biphenyl-4-carboxylic acid methyl-((1R,3S)-3-propionylamino-cyclopentyl)-amide] | < 300
CCC(=O)N[C@H]1CC[C@@H](N(C)C(=O)c2ccc(-c3ccc(OC)cc3)cc2)C1 [Compound A82, 4′-methoxy-biphenyl-4-carboxylic acid methyl-((1R,3S)-3-propionylamino-cyclopentyl)-amide] | < 300
CCC(=O)N[C@H]1CC[C@@H](N(C)C(=O)c2ccc(-c3ccc(Cl)cc3)cc2)C1 [Compound A5, 4′-chloro-biphenyl-4-carboxylic acid methyl-((1R,3S)-3-propionylamino-cyclopentyl)-amide] | < 300
CCC(=O)N[C@H]1CC[C@@H](N(C)C(=O)c2ccc(-c3ccc4[nH]cc(C(N)=O)c4c3)c(F)c2)C1 [Compound A160, 5-{2-fluoro-4-[methyl-((1R,3S)-3-propionylamino-cyclopentyl)-carbamoyl]-phenyl}-1H-indole-3-carboxylic acid amide] | < 300
